For test [1], the system named is active immune thrombocytopenia mice. The test can be described thus: Active immune thrombocytopenia in mice (platelets in peripheral blood). In kind it is in vivo, Balb/C mice. As to conditions: x ± s. On the procedure: 72 Balb/C mice were selected, weighed, and randomly divided into […] administration groups, i.e. the normal group, the model control group, the icariin group (positive control group), and the icaritin administration groups (high-, medium-, and low-dose groups), with 12 mice in each group. […] On the second day after the model was established, each group was administered with the following therapeutic agents: The normal group: administered intragastrically with the same volume of normal saline; The model control group: administered intragastrically with the same volume of normal saline; The […]: […]; The high-dose icaritin group: […] Example 9; The medium-dose icaritin group: […] Example 9; The low-dose icaritin group: […] Each of the administration groups was administered once a day and fed normally. After establishing the model three times, each administration group was continued to be administered for one week. The mice were anesthetized, and blood was sampled to measure the number of platelets and determine the effect of icaritin on the number of platelets (PLT) in the peripheral blood.

Test [2] relates to mice receiving 4 Gy of ^60Co radiation. The test can be described thus: Effect on the number of blood cells in mice receiving 4 Gy of ^60Co radiation. The test is classed as in vivo, Kunming mice. The note with it: 4 Gy ^60Co irradiated mice; ip once a day for 10 days; epimedium extract 3.5 ml/kg/d, icaritin 10 mg/kg/d. The text has this: Mice in each group, except for the normal group (10 mice), were radiated with 4 Gy of ^60Co by one-time systemic radiation with an absorbed dose of 4 Gy and an absorbed dose rate of 0.88 Gy/min. Blood was sampled at days 3, 7 and 10 after the radiation, respectively, from orbital vein for the whole blood cell count. The mice of which the number of white blood cells was lower than 3.0×10^9/L or the number of platelets was lower than 500×10^9/L in two consecutive whole blood cell counts were excluded, and the remaining mice were used to be tested.
The mice which met the requirements of the experiment after the radiation were randomly divided into the following model control group, epimedium extract group and icaritin group, with 10 animals in each group and half male and half female. Each group was treated or administered as follows.
Group 1, the normal group: administered by intraperitoneal injection with 0.9% normal saline in an administration volume of 10 ml/kg;
Group 2, the model control group: administered by intraperitoneal injection with 0.9% normal saline in an administration volume of 10 ml/kg; […]
Each group was administered once a day for totally 10 days. […] After the test was ended, blood was sampled from abdominal aorta for routine blood test, and the total number of white blood cells and the total number of platelets were determined.

For test [3], the system named is normal mice. As to the kind of experiment: Bleeding time in normal mice (tail tip cut). The test is classed as in vivo, Kunming mice. Also on record: unit not given here. As to conditions: 3 days, 1 h after last administration. On the procedure: 100 Kunming mice were randomly divided into 5 groups, i.e. the blank control group (normal saline group), the icariin group (positive control group), the high-dose icaritin group, the medium-dose icaritin group, and the low-dose icaritin group. Each group was administered as follows. Blank control group: administered with the same volume of normal saline by subcutaneous injection; Icariin group: administered with 2 mg/kg of icariin by injection; High-dose icaritin group: administered with the injection of icaritin of Example 1 by subcutaneous injection at a dosage of 10 mg/kg; Medium-dose icaritin group: administered with the injection of icaritin of Example 1 by subcutaneous injection at a dosage of 5 mg/kg; Low-dose icaritin group: administered with the injection of icaritin of Example 1 by subcutaneous injection at a dosage of 1 mg/kg. Measurement of the bleeding time: The normal saline group (blank control group), the icariin group (positive control group), and the icaritin administration groups (high-, medium-, and low-dose groups) were designed as follows: 50 mice were selected, weighed, and randomly divided into 5 groups, with 10 mice in each group. The animals were administered consecutively for 3 days. At 1 h after the last administration, a filter paper was rolled to form a filter paper cartridge with a diameter similar to that of the mouse body, which was closed at one end. The mouse was allowed to climb into the cartridge. Then about 3 mm of tail tip of the mouse was cut with scissors. A stopwatch was started to record the time when the bleeding started. The tail tip of the mouse was point-contacted with a filter paper gently every 15 s until there was no blood or no blood can be seen.

In test [4] the test system is normal mice. As to the kind of experiment: Clotting time in normal mice (capillary method). In kind it is in vivo, Kunming mice. Also noted: unit not given here. The note with it: 3 days, 1 h after last administration. On the procedure:
100 Kunming mice were randomly divided into 5 groups, i.e. the blank control group (normal saline group), the icariin group (positive control group), the high-dose icaritin group, the medium-dose icaritin group, and the low-dose icaritin group. Each group was administered as follows.
Blank control group: administered with the same volume of normal saline by subcutaneous injection;
Icariin group: administered with 2 mg/kg of icariin by injection;
High-dose icaritin group: administered with the injection of icaritin of Example 1 by subcutaneous injection at a dosage of 10 mg/kg;
Medium-dose icaritin group: administered with the injection of icaritin of Example 1 by subcutaneous injection at a dosage of 5 mg/kg;
Low-dose icaritin group: administered with the injection of icaritin of Example 1 by subcutaneous injection at a dosage of 1 mg/kg.
Measurement of the clotting time: The normal saline group (blank control group), the icariin group (positive control group), and the icaritin administration groups (high-, medium-, and low-dose groups) were designed as follows: 50 mice were selected, weighed and randomly divided into 5 groups, with 10 mice in each group. The animals were administered consecutively for 3 days. At 1 h after the last administration, blood was sampled from the venous plexus by inserting a disposable 20 μl blood collection tube into the inner canthus of the mouse to collect 20 μl of blood. A small fragment of capillary was broken off every 15 s for checking the occurrence of clotting filaments. The time from the blood sampling to the occurrence of fibrous protein filaments (clotting time) was recorded, and the results were shown in Table 5.

Marks after values point to notes of the source that are not given here.

For `COc1ccc(-c2oc3c(CC=C(C)C)c(O)cc(O)c3c(=O)c2O)cc1` [Icaritin], the PLT in test [1] (high dose 100 mg/kg intragastric (tablets of Example 9)) is given as 1193.4 ± 95.4 10^9/L; in test [1] (low dose 10 mg/kg intragastric (tablets of Example 9)), 862.7 ± 75.6 10^9/L; in test [1] (medium dose 50 mg/kg intragastric (tablets of Example 9)), 983.5 ± 85.7 10^9/L. For the same compound, the Platelets in test [2] is listed as 596.2 ± 72.5^#$ 10^9/L. Moreover, in test [2], the White blood cells is given as 4.225 ± 0.51^##$ 10^9/L. Besides, the “Bleeding Time” value with normal mice [3] (high dose 10 mg/kg sc) is 1.86 ± 0.24**^ΔΔ; in the test on normal mice [3] (low dose 1 mg/kg sc), 3.75 ± 0.46; with normal mice [3] (medium dose 5 mg/kg sc), 2.51 ± 0.35**^Δ. The entries for the “Clotting Time” value with normal mice [4] (high dose 10 mg/kg sc), in the test on normal mice [4] (low dose 1 mg/kg sc) and with normal mice [4] (medium dose 5 mg/kg sc) were 1.96 ± 0.16**^ΔΔ, 3.84 ± 0.55 and 3.04 ± 0.31**^Δ, respectively.

The values are drawn from patent US10799521B2, “Use of icaritin in preparing medicament for preventing or treating hematocytopenia” (Lunan Pharmaceutical Group Corporation, priority 2013, dated 2020).
